Measured values taken from patent publication US20230263822A1, “MODULATION OF FACTOR 11 EXPRESSION” (Ionis Pharmaceuticals, Inc., priority 2008, published 2023).

Legend:
blood coagulation = assay: PT and aPTT assay in cynomolgus monkeys (Example 45); type: in vivo; conditions: escalating dose regimen, platelet poor plasma
Protocol: (§1) Groups, each consisting of two male and three female monkeys, were injected subcutaneously with ISIS 416838, ISIS 416850, ISIS 416858, ISIS 416864, or ISIS 417002 in escalating doses. Antisense oligonucleotide was administered to the monkeys at 5 mg/kg three times per a week for week 1; 5 mg/kg twice per week for weeks 2 and 3; 10 mg/kg three times per week for week 4; 10 mg/kg twice per week for weeks 5 and 6; 25 mg/kg three times per week for week 7; and 25 mg/kg twice per week for weeks 8, 9, 10, 11, and 12. One control group, consisting of two male and three female monkeys, was injected subcutaneously with PBS according to the same dosing regimen. An additional experimental group, consisting of two male and three female monkeys, was injected subcutaneously with ISIS 416850 in a chronic, lower dose regimen. Antisense oligonucleotide was administered to the monkeys at 5 mg/kg three times per week for week 1; 5 mg/kg twice per week for week 2 and 3; 10 mg/kg three times per week for week 4; and 10 mg/kg twice per week for weeks 5 to 12. Body weights were measured weekly. Blood samples were collected 14 days and 5 days before the start of treatment and subsequently once per week for Factor 11 protein activity analysis in plasma, fibrinogen measurement, PT and aPTT measurements, bleeding times, and measurement of various hematologic factors. On day 85, the monkeys were euthanized by exsanguination while under deep anesthesia, and organs harvested for further analysis.
Blood samples were collected in tubes containing sodium citrate. PT and aPTT were determined in duplicate with an ACL 9000 coagulation instrument (Instrumentation Laboratory, Italy). The results were interpolated on a standard curve of serial dilutions citrated control monkey plasma tested to give a reported result in percent normal.
Prothrombin Time (PT) and Activated Partial Thromboplastin Time (aPTT) were measured using platelet poor plasma (PPP) from monkeys treated with ISIS oligonucleotides. PT and aPTT values are provided in Tables 116 and 117 and are reported as International Normalized Ratio (INR) values. INR values for PT and aPTT were determined by dividing the PT or aPTT value for each experimental group by the PT or aPTT for the PBS treated group. This ratio was then raised to the power of the International Sensitivity Index (ISI) of the tissue factor used. The ISIS oligonucleotide, ISIS 416850, given with the chronic dose regimen is distinguished from the other oligonucleotides with an asterisk (*).

Factor 11 activity = assay: Factor 11 protein activity, F11 assay based on clotting time (Example 45); type: in vivo, cynomolgus monkeys; conditions: escalating dose regimen
Protocol: as §1
Blood samples were collected at various time points and Factor 11 proenzyme was measured using a F11 assay based on clotting time. Clotting times were determined in duplicate with a ST4 semi-automated coagulation instrument (Diagnostica Stago, NJ). Thirty μl of citrated sample plasma diluted 1/20 in HEPES-NaCl buffer with BSA was incubated with 30 μl aPTT reagent (Automated aPTT, Organon Technika, NC) and 30 μl of citrated plasma deficient of Factor 11 (George King Bio-Medical Inc.) at 37° C. for 5 min, followed by the addition of 30 μl of 25 mM CaCl2) to initiate clotting. Results were interpolated on a standard curve of serially diluted citrated control plasma.
Results are presented in Table 118 as percent inhibition of Factor 11 activity, relative to PBS control. The ISIS oligonucleotide, ISIS 416850, given with the chronic dose regimen is distinguished from the other oligonucleotides with an asterisk (*).

ISIS 416864: MOE gapmer, nucleobases 1275 to 1318 of SEQ ID NO: 1 (Table 8) (antisense GGCAGCGGACGGCATTGGTG; MOE gapmer, wing and gap sizes not given here)
PT ratio (INR) (blood coagulation; day 8): 1.02 | aPTT ratio (INR) (blood coagulation; day 8): 1.05 | PT ratio (INR) (blood coagulation; day 15): 1.07 | aPTT ratio (INR) (blood coagulation; day 15): 1.03 | PT ratio (INR) (blood coagulation; day 22): 1.03 | aPTT ratio (INR) (blood coagulation; day 22): 1.11 | PT ratio (INR) (blood coagulation; day 29): 1.06 | aPTT ratio (INR) (blood coagulation; day 29): 1.13 | PT ratio (INR) (blood coagulation; day 36): 1.06 | aPTT ratio (INR) (blood coagulation; day 36): 1.19 | PT ratio (INR) (blood coagulation; day 43): 1.04 | aPTT ratio (INR) (blood coagulation; day 43): 1.07 | PT ratio (INR) (blood coagulation; day 50): 1.01 | aPTT ratio (INR) (blood coagulation; day 50): 1.26 | PT ratio (INR) (blood coagulation; day 57): 1.08 | aPTT ratio (INR) (blood coagulation; day 57): 1.19 | PT ratio (INR) (blood coagulation; day 64): 1.10 | aPTT ratio (INR) (blood coagulation; day 64): 1.12 | PT ratio (INR) (blood coagulation; day 71): 1.07 | aPTT ratio (INR) (blood coagulation; day 71): 1.18 | PT ratio (INR) (blood coagulation; day 78): 1.08 | aPTT ratio (INR) (blood coagulation; day 78): 1.18 | PT ratio (INR) (blood coagulation; day 85): 1.13 | aPTT ratio (INR) (blood coagulation; day 85): 1.25 | PT ratio (INR) (blood coagulation; day −5): 1.00 | aPTT ratio (INR) (blood coagulation; day −5): 1.00 | PT ratio (INR) (blood coagulation; day −14): 1.00 | aPTT ratio (INR) (blood coagulation; day −14): 1.00 | percent inhibition of Factor 11 activity, relative to PBS control (Factor 11 activity; day 8): 7% | percent inhibition of Factor 11 activity, relative to PBS control (Factor 11 activity; day 15): 9% | percent inhibition of Factor 11 activity, relative to PBS control (Factor 11 activity; day 22): 7% | percent inhibition of Factor 11 activity, relative to PBS control (Factor 11 activity; day 29): 10% | percent inhibition of Factor 11 activity, relative to PBS control (Factor 11 activity; day 36): 9% | percent inhibition of Factor 11 activity, relative to PBS control (Factor 11 activity; day 43): 9% | percent inhibition of Factor 11 activity, relative to PBS control (Factor 11 activity; day 50): 10% | percent inhibition of Factor 11 activity, relative to PBS control (Factor 11 activity; day 57): 7% | percent inhibition of Factor 11 activity, relative to PBS control (Factor 11 activity; day 64): 5% | percent inhibition of Factor 11 activity, relative to PBS control (Factor 11 activity; day 71): 10% | percent inhibition of Factor 11 activity, relative to PBS control (Factor 11 activity; day 78): 9% | percent inhibition of Factor 11 activity, relative to PBS control (Factor 11 activity; day 85): 8% | percent inhibition of Factor 11 activity, relative to PBS control (Factor 11 activity; day −5): 5% | percent inhibition of Factor 11 activity, relative to PBS control (Factor 11 activity; day −14): 0%

ISIS 416858: MOE gapmer, nucleobases 1275 to 1318 of SEQ ID NO: 1 (Table 8) (antisense ACGGCATTGGTGCACAGTTT; MOE gapmer, wing and gap sizes not given here)
PT ratio (INR) (blood coagulation; day 8): 1.05 | aPTT ratio (INR) (blood coagulation; day 8): 1.03 | PT ratio (INR) (blood coagulation; day 15): 1.07 | aPTT ratio (INR) (blood coagulation; day 15): 1.07 | PT ratio (INR) (blood coagulation; day 22): 1.06 | aPTT ratio (INR) (blood coagulation; day 22): 1.18 | PT ratio (INR) (blood coagulation; day 29): 1.08 | aPTT ratio (INR) (blood coagulation; day 29): 1.20 | PT ratio (INR) (blood coagulation; day 36): 1.07 | aPTT ratio (INR) (blood coagulation; day 36): 1.36 | PT ratio (INR) (blood coagulation; day 43): 1.08 | aPTT ratio (INR) (blood coagulation; day 43): 1.28 | PT ratio (INR) (blood coagulation; day 50): 1.03 | aPTT ratio (INR) (blood coagulation; day 50): 1.55 | PT ratio (INR) (blood coagulation; day 57): 1.09 | aPTT ratio (INR) (blood coagulation; day 57): 1.59 | PT ratio (INR) (blood coagulation; day 64): 1.09 | aPTT ratio (INR) (blood coagulation; day 64): 1.60 | PT ratio (INR) (blood coagulation; day 71): 1.07 | aPTT ratio (INR) (blood coagulation; day 71): 1.70 | PT ratio (INR) (blood coagulation; day 78): 1.10 | aPTT ratio (INR) (blood coagulation; day 78): 1.79 | PT ratio (INR) (blood coagulation; day 85): 1.07 | aPTT ratio (INR) (blood coagulation; day 85): 1.76 | PT ratio (INR) (blood coagulation; day −5): 1.00 | aPTT ratio (INR) (blood coagulation; day −5): 1.00 | PT ratio (INR) (blood coagulation; day −14): 1.00 | aPTT ratio (INR) (blood coagulation; day −14): 1.00 | percent inhibition of Factor 11 activity, relative to PBS control (Factor 11 activity; day 8): 6% | percent inhibition of Factor 11 activity, relative to PBS control (Factor 11 activity; day 15): 16% | percent inhibition of Factor 11 activity, relative to PBS control (Factor 11 activity; day 22): 23% | percent inhibition of Factor 11 activity, relative to PBS control (Factor 11 activity; day 29): 28% | percent inhibition of Factor 11 activity, relative to PBS control (Factor 11 activity; day 36): 35% | percent inhibition of Factor 11 activity, relative to PBS control (Factor 11 activity; day 43): 39% | percent inhibition of Factor 11 activity, relative to PBS control (Factor 11 activity; day 50): 49% | percent inhibition of Factor 11 activity, relative to PBS control (Factor 11 activity; day 57): 60% | percent inhibition of Factor 11 activity, relative to PBS control (Factor 11 activity; day 64): 68% | percent inhibition of Factor 11 activity, relative to PBS control (Factor 11 activity; day 71): 71% | percent inhibition of Factor 11 activity, relative to PBS control (Factor 11 activity; day 78): 73% | percent inhibition of Factor 11 activity, relative to PBS control (Factor 11 activity; day 85): 78% | percent inhibition of Factor 11 activity, relative to PBS control (Factor 11 activity; day −5): 0% | percent inhibition of Factor 11 activity, relative to PBS control (Factor 11 activity; day −14): 0%

ISIS 417002: MOE gapmer, nucleobases 1275 to 1318 of SEQ ID NO: 1 (Table 8) (antisense GGTGCACAGTTTCTGGCAGG; MOE gapmer, wing and gap sizes not given here)
PT ratio (INR) (blood coagulation; day 8): 1.02 | aPTT ratio (INR) (blood coagulation; day 8): 1.05 | PT ratio (INR) (blood coagulation; day 15): 1.04 | aPTT ratio (INR) (blood coagulation; day 15): 1.03 | PT ratio (INR) (blood coagulation; day 22): 1.04 | aPTT ratio (INR) (blood coagulation; day 22): 1.16 | PT ratio (INR) (blood coagulation; day 29): 1.01 | aPTT ratio (INR) (blood coagulation; day 29): 1.11 | PT ratio (INR) (blood coagulation; day 36): 1.05 | aPTT ratio (INR) (blood coagulation; day 36): 1.18 | PT ratio (INR) (blood coagulation; day 43): 1.03 | aPTT ratio (INR) (blood coagulation; day 43): 1.06 | PT ratio (INR) (blood coagulation; day 50): 0.99 | aPTT ratio (INR) (blood coagulation; day 50): 1.18 | PT ratio (INR) (blood coagulation; day 57): 1.03 | aPTT ratio (INR) (blood coagulation; day 57): 1.22 | PT ratio (INR) (blood coagulation; day 64): 1.03 | aPTT ratio (INR) (blood coagulation; day 64): 1.11 | PT ratio (INR) (blood coagulation; day 71): 0.99 | aPTT ratio (INR) (blood coagulation; day 71): 1.16 | PT ratio (INR) (blood coagulation; day 78): 1.02 | aPTT ratio (INR) (blood coagulation; day 78): 1.18 | PT ratio (INR) (blood coagulation; day 85): 1.02 | aPTT ratio (INR) (blood coagulation; day 85): 1.20 | PT ratio (INR) (blood coagulation; day −5): 1.00 | aPTT ratio (INR) (blood coagulation; day −5): 1.00 | PT ratio (INR) (blood coagulation; day −14): 1.00 | aPTT ratio (INR) (blood coagulation; day −14): 1.00 | percent inhibition of Factor 11 activity, relative to PBS control (Factor 11 activity; day 8): 0% | percent inhibition of Factor 11 activity, relative to PBS control (Factor 11 activity; day 15): 4% | percent inhibition of Factor 11 activity, relative to PBS control (Factor 11 activity; day 22): 2% | percent inhibition of Factor 11 activity, relative to PBS control (Factor 11 activity; day 29): 8% | percent inhibition of Factor 11 activity, relative to PBS control (Factor 11 activity; day 36): 8% | percent inhibition of Factor 11 activity, relative to PBS control (Factor 11 activity; day 43): 9% | percent inhibition of Factor 11 activity, relative to PBS control (Factor 11 activity; day 50): 13% | percent inhibition of Factor 11 activity, relative to PBS control (Factor 11 activity; day 57): 24% | percent inhibition of Factor 11 activity, relative to PBS control (Factor 11 activity; day 64): 26% | percent inhibition of Factor 11 activity, relative to PBS control (Factor 11 activity; day 71): 30% | percent inhibition of Factor 11 activity, relative to PBS control (Factor 11 activity; day 78): 22% | percent inhibition of Factor 11 activity, relative to PBS control (Factor 11 activity; day 85): 23% | percent inhibition of Factor 11 activity, relative to PBS control (Factor 11 activity; day −5): 0% | percent inhibition of Factor 11 activity, relative to PBS control (Factor 11 activity; day −14): 0%
